Data as given in patent US11001795B2, “In vitro gastrointestinal model comprising lamina propria-derived cells” (EMULATE, Inc., priority 2016, dated 2021).
“Also recorded” adds a separate entry of the source. Each block holds one compound with its values, some of them ahead of it.

Experiments:
[1] = tested on: Ulcerative Colitis patients; conditions: cited from earlier work
[2] = tested on: Caco-2/HUVEC/LPDC microfluidic co-cultures; experiment: Cytokine and chemokine production in microfluidic co-cultures with LP derived cells; type: cell-based, human
Experimental: An exemplary bacteria antigen used was PAM2CSK4. […] PAM2CSK4 refers to a synthetic diacylated lipopeptide.
In order to determine contributory factors to the trends in permeability changes observed by combinations of prednisone treatments as in Example 5, cytokine and chemokine production were measured from media samples obtained from the microfluidic cultures as described in Example 5. After an incubation time, media samples were extracted from the microfluidic device then used for determining amounts of cytokine and chemokine produced, such as IL-6 and IL-9 in FIG. 18A-B; IL-8 and G-CSF in FIG. 19A-B; GM-CSF and MCP-1 in FIG. 20A-B: MIP1b and PDGF-AB/BB in FIG. 21A-B; and RANTES in FIG. 22. Amounts of cytokine and chemokine protein are measure in pg/ml (picogram per milliliter).

[3] = tested on: UC patient's resident immune cells; experiment: 24 hour bacterial challenge of resident immune cells cultured on-plates, secreted cytokines; type: cell-based, human; conditions: immune cells from inflamed UC tissue, 24 hour challenge
[4] = tested on: TH1 and TH9 CD4+ T cell populations; experiment: Bacterial antigen stimulation of TH1 and TH9 populations on cell culture plates; type: cell-based, human
Experimental: Purified human CD4+ cells in tissue culture media, comprising soluble anti-human CD28 mAb (e.g. PharMingen, San Diego, Calif.), were added to CD3 coated plastic tissue culture plates for non-antigen-specific activation. Co-stimulation of the CD3 transmembrane signaling complex and the T cell CD28 molecule results in nonantigen specific stimulation of the TCR (CD3). After three days of incubation, the default T cell population is considered a TH1 population. After three days of co-stimulation, with or without added cytokines, cells are pipetted out of the plates, the plates are washed with media or PBS to remove any remaining cells, then harvested cells are washed at least 3 times to remove cell fragments and culture reagents, prior to use of the activated T cell population for seeding microfluidic chips on Day 0 of the chip timeline.
In this example, a TH1 cell population was produced from a population of CD4+ T cells obtained from a sample of PBMCs. This population of CD4+ T cells were co-stimulated with soluble CD3 and CD28 antibodies without added cytokine stimulation for inducing differentiation of TH1 cells. Unlike the co-stimulation with soluble CD3 and CD28 antibodies in the presence of TGFB, IL-4, and IFNg cytokines for inducing differentiation of TH9 cells as described herein.
A sample of each TH cell type was exposed to PAM2CSK4, then log 2 fold changes in protein expression of either pathway molecules or IL-9 were measured and compared to duplicate samples not treated with PAM2CSK4.

[5] = tested on: Intestine On-Chip with TH1 or TH9 cells; experiment: Cytokine production in Intestine On-Chip seeded with plate-differentiated TH1 or TH9 cells; type: cell-based, human; conditions: for IL-10: TH9 populations; for IL-6 protein: untreated vs PAM2CSK4 treated with and without Tofacitinib
From the text: In this example, a TH1 cell population was produced from a population of mature/naive CD4+ T cells, as described in Example 7. This population of CD4+ T cells were co-stimulated with adhered CD3 and soluble CD28 antibodies, without added cytokines, for inducing differentiation of TH1 cells on plates. Unlike co-stimulation with adhered CD3 and soluble CD28 antibodies in the presence of TGFB, IL-4, and IFNg cytokines which induced differentiation of TH9 cells, as described herein. Thus, in this example, purified CD4+ T cell populations were plated into tissue culture plates for activation and differentiation into one selected T cell subtype, e.g. TH1 in one plate, and TH9 in another plate.
In order to further test whether PBMCs activated and differentiated with soluble factors were capable of inducing inflammation on chips, pro-inflammatory cytokine production was compared between untreated, PAM2CSK4 treated with and without Tofacitinib.
Experiments were designed to evaluate whether anti-CD3 and anti-CD28 co-stimulatory activation (soluble reagents) on chip would stimulate on chip T cells (previously activated and differentiated on plates) to continue functioning as activated effector cells within the chip tissue microenvironment. Further, TH1 and TH9 T cell populations underwent testing for an exacerbated response (either tissue alterations or changes in the characteristics of the T cell population) to a specific antigen stimulation, e.g. PAM2CSK4 (TLR2) bacterial agonist, with or without additional co-stimulation (i.e. using soluble reagents). Stimulation on-chip was done as a treatment on Day 7 of culture.
Evaluation of the effects of T-cell activation on the Intestine On-Chip by perfusion of soluble immune activating factors (anti-CD3 and anti-CD28) to the media is shown in FIGS. 36A-B-39A-C. In particular, activated T-cell subsets were evaluated for disease-specific cytokine production.
T cell subsets were purified from PBMCs as described herein, then stimulated in tissue culture plates using plate bound CD3 and soluble CD28 antibodies.

[6] = tested on: Caco-2 epithelial cell layer; type: cell-based, human
From the text: See an exemplary permeability assay method in Example 4.
Effects of resident leukocytes isolated from LP

[7] = prednisone alone, non-inflamed LPDC
[8] = prednisone, inflamed LPDCs, with and without PAM2CSK4
[9] = prednisone, non-inflamed and inflamed LPDCs treated with PAM2CSK4

From the text for Caco-2 epithelial layer: The following exemplary protocol outlines the sterilization/functionalization, coating, media wash, and cell seeding steps for preparing the Intestine-on-Chip with epithelial cells, e.g. Caco-, human primary epithelial cells, etc., HUVECs, and resident immune cells from lamina propria-derived cells.
An exemplary experimental chip culture schedule is presented as a timeline starting from Day 0 (seeding chips) by adding HUVEC cells and lamina propria-derived cells; Day 1 was seeding a top layer of epithelial cells and connecting to a flow system; by Day 7 treatments, such as adding PAM2CSK4; and starting Day 8 testing layers and/or removing samples for further analysis. A sample such as effluent was tested for cytokine section from cells. Other samples removed were histological samples for fixation and ICC (immunocytochemistry) such as for determining cellular appearance, determination of tight junction integrity, such as by staining for actin, ZO-1, intracellular cytokine co-localization, etc, and physiological testing, such as migration of particles through the extracellular regions of the epidermal layer. Additional tests may include RNA isolation for determining gene expression levels, such as for proteins involved with tight junction formation, cytokine expression, etc.
The chips treated with PAM2CSK4 as a model bacterial antigen are considered infected chips. […]

Compound: C[C@]12C=CC(=O)C=C1CC[C@@H]1[C@@H]2C(=O)C[C@@]2(C)[C@H]1CC[C@]2(O)C(=O)CO [prednisone]
Treated patients non-responsive ([1]; Ulcerative Colitis patients): around 16%
Treated patients with full remission ([1]; Ulcerative Colitis patients): 54%
Treated patients with partial remission ([1]; Ulcerative Colitis patients): 30%
Undesirable Side Effects ([1]; in vivo): increased Risk of infection, Weight gain, Hyperglycemia, Hypertension, Bone loss
PDGF-AA/BB production ([2]; prednisone alone): did not appear to be a reduction in PDGF-AA/BB
IL-8 production ([2]; prednisone alone or PAM2CSK4, non-inflamed LPDC): did not appear to be a reduction in IL-8
GM-CSF production [2, 7]: did not appear to be a reduction in GM-CSF
MCP-1 production [2, 7]: did not appear to be a reduction in MCP-1
GM-CSF production [2, 8]: reduced GM-CSF production
IL-8 production [2, 8]: trend for reducing IL-8 production
MCP-1 production [2, 8]: reduced MCP-1 production
IL-6 production ([2]; prednisone, inflamed UC LPDC, endogenous or PAM2CSK4 induced): reduce IL-6 production
IL-6 production ([2]; prednisone, non-inflamed LPDCs): does not appear to have an effect
PDGF-AA/BB production ([2]; prednisone, non-inflamed LPDCs (printed in the MIP-1b section)): trend for reducing PDGF-AA/BB production
MIP-1b production ([2]; prednisone, non-inflamed and inflamed LPDCs (stated in heading only)): Tends to Reduce MIP-1b Production
PDGF-AA/BB production [2, 9]: trend for reducing PDGF-AA/BB production
RANTES production [2, 9]: trend for reducing RANTES production
IL-9 production ([2]; prednisone, non-inflamed and inflamed UC LPDC, regardless of PAM2CSK4): production is reduced; also recorded: significantly reduced
G-CSF production ([2]; prednisone, non-inflamed or inflamed LPDCs, with and without PAM2CSK4): trend for reducing G-CSF production
Inflammatory responses (secreted cytokines) to PAM2CSK4 treatment ([2]; prophylactic prednisone on-chip, noninflamed and inflamed UC resident immune cells): suppresses the inflammatory responses

Avg. Z Height (z-arrow) of Caco-2 epithelial layer (Caco-2 epithelial layer): 84 um+/−11
Permeability of Caco-2 epithelial cell layer [6]: increase in permeability
Compound: PAM2CSK4
Response (secreted cytokines) to PAM2CSK4 [3]: stronger response
IL-9 production, apical ([2]; PAM2CSK4, 1 and 2 LP mil/ml): increased
IL-9 production, basal ([2]; PAM2CSK4, 4 LP mil/ml): higher level of IL-9 production
IL-9 production ([2]; PAM2CSK4, LP leukocyte co-cultures for each source): induce IL-9
IL6 response ([2]; PAM2CSK4, epithelial cells without LP): induce an IL6 response
IL6 response ([2]; PAM2CSK4, healthy LP leukocyte co-cultures): induce an IL6 response
IL-6 production ([2]; PAM2CSK4, inflamed LPDC samples): increased IL-6 production
IL-6 production ([2]; PAM2CSK4, non-inflamed LPDC samples): does not appear to have an effect
IL-9 production ([2]; PAM2CSK4, non-inflamed and inflamed UC LPDC co-cultures, over endogenous levels): significantly induced IL-9 production
IL-6 production ([2]; PAM2CSK4 at 1, 2 and 4 LP mil/ml vs co-cultures with no PAM2CSK4): higher level of IL-6 production
Concentration of cytokine protein signaling ([4]; PAM2CSK4, TH1 (CD) and TH9 (UC) cells on-plates): increases in the concentration of cytokine protein signaling
IL-9 ([4]; PAM2CSK4 stimulation, TH1 populations): measurable; also recorded: did significantly increase
IRF4 ([4]; PAM2CSK4 stimulation, TH1 populations, log 2 fold change): measurable
IL-9, or IL-9 activation factors, log 2 fold changes ([4]; PAM2CSK4 stimulation, TH9 populations in tissue culture plate): did not significantly increase
IL-10 ([5]; unstimulated vs Pam stimulated): no insignificant differences
IL-8 ([5]; antigen specific stimulation (PAM2CSK4) on-chip): increased
IL-6 protein [5]: no significant differences
Loss of barrier function ([6]; PAM2CSK4 treatment, overnight incubation, 4 LP mil/ml): Loss of barrier function is shown

Compound: Tofacitinib (citrate)
IL-10 ([5]; mixture of PAM2CSK4 and Tofacitinib vs unstimulated cells): induced significant amounts
IL-6 protein [5]: no significant differences
